Entries after “also recorded” stand apart in the source; their conditions may differ.
Experiments:
TNF-α and IL-6 = TNF-α and IL-6 assay (ELISA) in LPS-stimulated RAW264.7 cells; format: cell-based; conditions: 1 μg/mL LPS 24 h, supernatant ELISA
Method: 4.6. TNF-α and IL-6 assay
(§1) RAW264.7 cells were seeded into 6 well plate at a density of 1.5×10^6 cells per well. After incubated for 24 hours, cells were treated with different concentrations of compound and stimulated by 1 μg/mL LPS after one hour.24 hours later, the supernatant was collected and measured by ELISA kits(MultiScience). […]

NF-κB p65 and IκBα = test: Western blot of LPS-induced phosphorylation of p65 and IκBα in RAW264.7 cells; format: cell-based; conditions: compound 4, 2, 1 μM 1 h, then LPS 1 μg/mL 30 min, WB
Method: (§2) RAW264.7 cells were seeded into 6 well plate at a density of 1.5×10^6 per well and incubated at 37 C in 5% CO2 about 24 h. RAW264.7 cells were pretreated with compound (4, 2, 1 μM) for 1 h, then treated with LPS (1 μg/mL) for 30 min. The cells were lysed in 300 μL RIPA cell lysis buffer and the samples were analyzed by WB. […] All antibodies were purchased from ZENBIO. […]

[1] = system: LPS-stimulated RAW264.7 cells; test: NO release inhibition in LPS-stimulated RAW264.7 cells (Griess reagent); format: cell-based
Method: After incubated for 24 hours, cells were treated with tested compounds for different
concentrations(3.125,6.25,12.5,25 and 50μM) for 1 h, and then treated with 1 μg/mL LPS
for further 24 h. The supernatants were collected and NO level was measured using
Griess reagent (Beyotime, China). […]

[2] = system: LPS-induced inflammation model of mice; test: LPS-induced inflammation model in vivo; design: species or system C57BL/6 mice
Method: All antibodies were purchased from ZENBIO.
4.9 Establishment of LPS-induced inflammation models in vivo
The 30 male C57BL/6 mice weighing 18-22 g were purchased from Animal Department of Anhui Medical University. After adaptive feeding for a week, mice were randomly divided into five groups on average, including the control group, LPS group, compound 51 (5,10,20 mg/kg) +LPS group. Before received 20 mg/kg LPS by intraperitoneal injection, mice were gavaged for three days of compound 51. 6 hours after received LPS, the blood and tissues were taken from mice. The levels of IL-6, TNF-α, SOD and MDA

iNOS and COX-2 = test: Western blot of iNOS and COX-2 expression in LPS-stimulated RAW264.7 cells; format: cell-based; conditions: compound 1 h then LPS 24 h, WB
Method: RAW264.7 cells were seeded into 6 well plate at a density of 1.5×10^6 per well and incubated at 37 C in 5% CO2 about 24 h. RAW264.7 cells were pretreated with […]
were lysed in 300 μL RIPA cell lysis buffer and the samples were analyzed by WB. […] All antibodies were purchased from ZENBIO. […]

NF-κB = NF-κB transcriptional activity dual-luciferase reporter assay, TNF-α stimulated; format: cell-based; conditions: HEK293T cells transfected with NF-κB reporter plasmid, stimulated by TNF-α
Method: (§3) 4.5. NF-κB transcriptional activity assay
HEK293T cells were seeded into 96 well plate at a density of 1×10^5 cells per well. After incubated for 24 hours, cells were transfected with NF-κB reporter plasmid at 100 ng/well using lip2000.Six hours later, the medium was replaced by fresh medium containing tested compounds with different concentrations. Then incubated for another hour, TNF-α was added for a final concentration at 10 ng/mL.12 hours later, the cell lysate was collected and the RLU was measured by microplate reader. […]

MAPKs (P38, JNK and ERK) = test: Western blot of LPS-regulated MAPK signalling activation in RAW264.7 cells; format: cell-based; conditions: LPS stimulated, WB
Method: as §2

[3] = Cytotoxicity by MTT assay; format: cell-based
RAW264.7 cells = test: Reactive oxygen species (ROS) assay in LPS-stimulated RAW264.7 cells; format: cell-based; conditions: 1 μg/mL LPS 24 h, DCFH-DA
Method: […]
as §3
HEK293T cells were seeded into 96 well plate at a density of 1×10^5 cells per well. After incubated for 24 hours, cells were transfected with NF-κB reporter plasmid at 100 ng/well using lip2000.Six hours later, the medium was replaced by fresh medium containing tested compounds with different concentrations. Then incubated for another hour, TNF-α was added for a final concentration at 10 ng/mL.12 hours later, the cell lysate was collected and the RLU was measured by microplate reader.
4.6. […]
as §1
stimulated by 1 μg/mL LPS after one hour.24 hours later, cells were collected and washed by PBS for three times. […] Cell samples were incubated for 20 min at 37°C,and then the fluorescence intensity measured by microplate reader using Ex λ 488 nm and Em λ 525 […]

[4] = system: RELA (p65) and NFKB1 (p50) subunits of NF-κB; test: Western blot of TNFα-induced nuclear translocation of p65 and p50 in HEK293T cells; format: cell-based; conditions: compound 4, 2, 1 μM 1 h, then TNF-α 12 h, nuclear protein WB
Method: HEK293T cells were seeded into 6 well plate at a density of 1.5×10^6 cells per well and incubated at 37°C in 5% CO2 about 24 h. HEK293T cells were pretreated with compound (4, 2, 1 μM) for 1 h, then treated with TNF-α (1 μg/mL) for 12 h. The nuclear protein was extracted by Nuclear protein extraction kit(Beyotime).The samples were analyzed by WB.
All antibodies were purchased from ZENBIO. […]

[5] = compound 51 5,10,20 mg/kg gavaged, LPS i.p.
[6] = compound 51 5,10,20 mg/kg gavaged, LPS i.p., ELISA

SMILES: CC(=O)Nc1ccc(NC(=O)c2cc(-c3ccc(N)cc3Cl)cnc2N)cc1 [Compound 51]
- level of IL-6 (TNF-α and IL-6): decreased the levels of TNF-α and IL-6 significantly in a dose dependent manner
- level of TNF-α (TNF-α and IL-6): decreased the levels of TNF-α and IL-6 significantly in a dose dependent manner
- LPS-induced phosphorylation of IκBα (NF-κB p65 and IκBα): suppressed significantly in a dose dependent manner
- LPS-induced phosphorylation of p65 (NF-κB p65 and IκBα): suppressed significantly in a dose dependent manner
- IC50 ([1]; Mus musculus, LPS-stimulated RAW264.7 cells, Griess Reagent): 3100 ± 1100 nM
- anti-inflammatory activity (in words) ([1]; SAR summary covering NO release and NF-κB reporter inhibition): superior anti-inflammatory activity
- activation of NF-κB in splenic organ ([2]; LPS i.p., spleen WB): suppressed the activation of NF-κB in splenic organ
- injury of spleen (HE staining) ([2]; compound 51 5,10,20 mg/kg gavaged three days before LPS i.p.): alleviated these injury in a dose-dependent manner
- gastric distention and splenomegaly ([2]; compound 51 5,10,20 mg/kg gavaged three days before LPS i.p., 6 hours after LPS): these symptoms were relieved
- MDA activity in blood [2, 5]: reversed their activity; also recorded: decreased MDA activity
- SOD activity in blood [2, 5]: reversed their activity; also recorded: increased SOD activity
- IL-6 level in blood [2, 6]: decreased obviously
- TNF-α level in blood [2, 6]: decreased obviously
- expression of COX-2 (iNOS and COX-2): decreased significantly
- expression of iNOS (iNOS and COX-2): decreased significantly
- IC50 (NF-κB): 172 ± 11.4 nM
- IC50 (NF-κB; Homo sapiens, HEK-293T): 173 nM
- phosphorylation of ERK (MAPKs (P38, JNK and ERK)): significantly decreased
- phosphorylation of JNK (MAPKs (P38, JNK and ERK)): significantly decreased
- phosphorylation of P38 (MAPKs (P38, JNK and ERK)): significantly decreased
- IC50 [3]: > 50000 nM
- cytotoxicity (in words) [3]: did not show obvious cytotoxicity
- level of ROS (RAW264.7 cells): decrease the level of ROS obviously
- TNFα-induced nuclear translocation of p50 [4]: inhibited by compound in a dose dependent manner
- TNFα-induced nuclear translocation of p65 [4]: inhibited by compound in a dose dependent manner
